Here are results for 18 molecules from the SangsterLogP compilation.

The term logP denotes the decadic logarithm of the partition coefficient of the neutral form, usually between octanol and water. A high value points to a more lipophilic compound.

The nature of data set [1]: method code SF, from DOI: 10.1016/0223-5234(90)90118-m.

Molecules are shown by their SMILES.

`O=C(Nc1ccc2nn(C3CCCC3)nc2c1)C(Cl)Cl`: the logP stood at 3.4.

In data set [1], `O=C(Nc1ccc2nn(C3CCCC3)nc2c1)c1ccc([N+](=O)[O-])cc1` returned a logP of 3.75.

For `Cc1ccc(S(=O)(=O)Nc2ccc3nn(C4CCCC4)nc3c2)cc1`, the logP is 3.91.

With `CC(C)(C)C(=O)c1cccc2nn(C3CCCC3)nc12`, the logP came out at 3.4.

The molecule `O=C(Nc1ccc2nn(C3CCCC3)nc2c1)c1ccc(C(F)(F)F)cc1` had a logP in data set [1] of 4.95.

The molecule `O=C(Nc1ccc2nn(C3CCCC3)nc2c1)c1ccccc1` had a logP in data set [1] of 3.85.

`O=C(Nc1ccc2nn(C3CCCC3)nc2c1)c1ccc(Cl)cc1` showed a logP of 4.11.

The molecule `O=C(Nc1ccc2nn(C3CCCC3)nc2c1)c1ccc(Cl)c(Cl)c1` came in with a logP of 5.32.

As to `O=C(Nc1ccc2nn(C3CCCC3)nc2c1)C(Cl)(Cl)Cl`, the logP in data set [1] was 4.12.

With `CC(=O)N(C(C)=O)c1ccc2nn(C3CCCC3)nc2c1`, the logP was found to be 2.73.

Consider `COc1cc(C(=O)Nc2ccc3nn(C4CCCC4)nc3c2)cc(OC)c1OC`, for which the logP was determined as 3.87.

Molecule `CS(=O)(=O)Nc1ccc2nn(C3CCCC3)nc2c1` yielded a logP in data set [1] of 2.44.

In the case of `O=C(CCl)Nc1ccc2nn(C3CCCC3)nc2c1`, in data set [1], the logP stood at 2.78.

As for `COc1ccc(C(=O)Nc2ccc3nn(C4CCCC4)nc3c2)cc1`, the logP in data set [1] stood at 4.03.

`O=[N+]([O-])c1ccc(S(=O)(=O)Nc2ccc3nn(C4CCCC4)nc3c2)cc1` displayed a logP of 3.82.

In the case of `CCOC(=O)Nc1ccc2nn(C3CCCC3)nc2c1`, the logP in data set [1] came to 3.43.

In data set [1], `CC(=O)Nc1ccc2nn(C3CCCC3)nc2c1` had a logP of 2.45.

Consider `CC(C)COC(=O)Nc1ccc2nn(C3CCCC3)nc2c1`, for which the logP in data set [1] came to 4.28.
